Reference: patent US7288557B2, “Triazole derivatives” (Hoffmann-La Roche Inc., priority 2004, dated 2007)

Test system: HEK293 cells
Experiment: Viability assay of HEK293 cells (CellTiter-Glo luminescent cell viability assay)
Format: cell-based, human
Conditions: 7 days (168 h) incubation, 3 μM to 0.00015 μM
Method: Viability Assay of HEK293 Cells
A viability assay was performed using the CellTiter-Glo® Luminescent Cell Viability Assay (see Promega Corporation's Technical No. 288, pp. 1-11 [revised February 2004] which is hereby incorporated by reference in its entirety). This assay is a homogeneous method of determining the number of viable cells in culture based on quantitation of the ATP present, an indicator of metabolically active cells. The assay is designed for use with multiwell formats, making it ideal for automated high-throughput screening (HTS), cell proliferation and cytotoxicity assays. The homogeneous assay procedure involves adding a single reagent (containing luciferase, luciferan substrate, and buffer) directly to cells cultured in serum-supplemented medium. Cell washing, removal of medium and multiple pipetting steps are not required. The system detects as few as 15 cells/well in a 384-well format in 10 minutes after adding reagent and mixing.
The homogeneous “add-mix-measure” format results in cell lysis and generation of a luminescent signal proportional to the amount of ATP present. The amount of ATP is directly proportional to the number of cells present in culture. The above-referenced assay generates a “glow-type” luminescent signal, produced by the luciferase reaction, which has a half-life generally greater than five hours, depending on cell type and medium used. The extended half-life eliminates the need to use reagent injectors and provides flexibility for continuous or batch mode processing of multiple plates. […]
HEK293 cells (human embryonic kidney cell line transformed by Adenovirus 5 fragments, ATCC-No. CRL 1573) were cultivated in Dulbecco's Modified Eagle Medium (D-MEM) (1×) liquid (high glucose) (which includes L-Alanyl-L-Glutamine [a stabilized a form of L-Glutamine], 4500 mg/L glucose, and 110 mg/L sodium pyruvate) from Invitrogen Corporation (Invitrogen Catalog Number 31966-021 [now 10569-010] which is hereby incorporated by reference in its entirety), 5% Fetal Calf Serum (FCS, Sigma Cat-No. F4135 [FBS] which is hereby incorporated by reference in its entirety), and 100 Units/ml penicillin/100 μg/ml streptomycin (=Pen/Strep from Invitrogen Cat. No. 15140, which is hereby incorporated by reference in its entirety). […] After 7 days the above viability assay was performed in accordance with the following steps: • Step 1: The cell-plate was equilibrated to room temperature for approximately 30 minutes and than the assay reagent (containing luciferase, luciferan substrate, and buffer) was added. • Step 2: The contents were carefully mixed for 15 minutes to induce cell lysis. • Step 3: After 45 minutes the luminescent signal was measured in Victor 2, (scanning multiwell spectrophotometer, Wallac). […]

| SMILES | IC50 [nM] | IC50 (Homo sapiens) [nM] |
| --- | --- | --- |
| OC(CCCn1ccnn1)c1ccc(OCc2coc(/C=C/c3ccc(OC(F)(F)F)cc3)n2)cc1 (racemic) [Example 2, (rac)-4-[1,2,3]Triazol-1-yl-1-(4-{2-[(E)-2-(4-trifluoro-methoxyphenyl)-vinyl]-oxazol-4-ylmethoxy}-phenyl)-butan-1-ol] | 21.1 | – |
| O=C(CCCn1ccnn1)c1ccc(OCc2coc(/C=C/c3ccc(OC(F)(F)F)cc3)n2)cc1 [Example 1, 4-[1,2,3]Triazol-1-yl-1-(4-{2-[(E)-2-(4-trifluoromethoxy-phenyl)-vinyl]-oxazol-4-ylmethoxy}-phenyl)-butan-1-one] | – | 17.9 |
| O=C(CCCn1ccnn1)c1ccc(OCc2coc(/C=C/c3ccc(SC(F)(F)F)cc3)n2)cc1 [Example 3, 4-[1,2,3]Triazol-1-yl-1-(4-{2-[(E)-2-(4-trifluoromethylsulfanyl-phenyl)-vinyl]-oxazol-4-ylmethoxy}-phenyl)-butan-1-one] | – | 29.9 |
| O=C(CCCn1ccnn1)c1ccc(OCc2coc(C=Cc3ccc(C(F)(F)F)cc3)n2)cc1 [Reference compound, 4-[1,2,3]Triazol-1-yl-1-(4-{2-[2-(4-trifluoromethyl-phenyl)-vinyl]-oxazol-4-ylmethoxy}-phenyl)-butan-1-one, reference compound] | – | 164 |
